Source: patent US7470684B2, “Spiropiperidine derivatives as NK3 antagonists” (Hoffmann-La Roche Inc., priority 2007, dated 2008)
pKi: −log10 of the molar value.

biological target: T1, human NK3 receptor (Homo sapiens, UniProt P29371); assay: [3H]SR142801 competition binding assay; conditions: not given
T1 construct: expressed in transfected cells; host or cells: HEK293 cells, transiently transfected; membranes
T1 sequence (P29371 1-465): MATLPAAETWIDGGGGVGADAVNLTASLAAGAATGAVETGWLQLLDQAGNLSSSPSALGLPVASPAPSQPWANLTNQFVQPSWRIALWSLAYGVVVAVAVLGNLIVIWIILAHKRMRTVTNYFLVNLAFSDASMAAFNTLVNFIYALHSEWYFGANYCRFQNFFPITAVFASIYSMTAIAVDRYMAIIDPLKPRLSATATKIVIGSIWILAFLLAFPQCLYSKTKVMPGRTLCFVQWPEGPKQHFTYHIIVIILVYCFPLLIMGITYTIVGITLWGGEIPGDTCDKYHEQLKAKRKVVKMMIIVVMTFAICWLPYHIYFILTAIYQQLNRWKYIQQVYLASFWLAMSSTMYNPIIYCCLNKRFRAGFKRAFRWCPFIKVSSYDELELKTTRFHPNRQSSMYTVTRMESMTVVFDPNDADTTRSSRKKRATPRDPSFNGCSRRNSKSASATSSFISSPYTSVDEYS
Description: [^3H]SR142801 Competition Binding Assay
hNK3 receptor binding experiment were performed using [^3H]SR142801 (Catalog No. TRK1035, specific activity: 74.0 Ci/mmol, Amersham, GE Healthcare UK limited, Buckinghamshire, UK) and membrane isolated from HEK293 cells transiently expressing recombinant human NK3 receptor. After thawing, the membrane homogenates were centrifuged at 48,000×g for 10 min at 4° C., the pellets were resuspended in the 50 mM Tris-HCl, 4 mM MnCl2, 1 μM phosphoramidon, 0.1% BSA binding buffer at pH 7.4 to a final assay concentration of 5 μg protein/well. For inhibition experiments, membranes were incubated with [^3H]SR142801 at a concentration equal to KD value of radioligand and 10 concentrations of the inhibitory compound (0.0003-10 μM) (in a total reaction volume of 500 μl) for 75 min at room temperature (RT). At the end of the incubation, membranes were filtered onto unitfilter (96-well white microplate with bonded GF/C filter preincubated 1 h in 0.3% PEI+0.3% BSA, Packard BioScience, Meriden, Conn.) with a Filtermate 196 harvester (Packard BioScience) and washed 4 times with ice-cold 50 mM Tris-HCl, pH 7.4 buffer. Nonspecific binding was measured in the presence of 10 μM SB222200 for both radioligands. The radioactivity on the filter was counted (5 min) on a Packard Top-count microplate scintillation counter with quenching correction after addition of 45 μl of microscint 40 (Canberra Packard S.A., Zürich, Switzerland) and shaking for 1 h. Inhibition curves were fitted according to the Hill equation: y=100/(1+(x/IC50)^nH), where nH=slope factor using Excel-fit 4 software (Microsoft). IC50 values were derived from the inhibition curve and the affinity constant (Ki) values were calculated using the Cheng-Prussoff equation Ki=IC50/(1+[L]/KD) where [L] is the concentration of radioligand and KD is its dissociation constant at the receptor, derived from the saturation isotherm. All experiments were performed in duplicate and the mean±standard error (SEM) of the individual Ki values was calculated.

| Structure (SMILES) | pKi |
| --- | --- |
| CN1C(=O)OC2(CCN(CCC(C(=O)N3CCC(F)CC3)c3ccc(Cl)c(Cl)c3)CC2)c2cc(F)ccc21 (stereo not drawn) [Example 43, 1′-[3-(3,4-dichlorophenyl)-4-(4-fluropiperidin-1-yl)-4-oxobutyl]-6-fluoro-1-methylspiro[3,1-benzoxazine-4,4′-piperidin]-2(1H)-one] | 7.21 |
| O=C1Nc2ccc(F)cc2C2(CCN(CCC(C(=O)NCc3cccc(C(F)(F)F)c3)c3ccc(F)cc3)CC2)O1 (stereo not drawn) [Example 61, 4-(6-fluoro-2-oxo-1,2-dihydro-1′H-spiro[3,1-benzoxazine-4,4′-piperidin]-1′-yl)-2-(4-fluorophenyl)-N-[3-(trifluoromethyl)benzyl]butanamide] | 7.05 |

same assay, conditions: [3H]SR142801 displacement, membranes of HEK293 cells transiently expressing recombinant human NK3 receptor; read-out: hNK3 Ki

| Structure (SMILES) | pKi |
| --- | --- |
| O=C1Nc2ccc(F)cc2C2(CCN(CCC(C(=O)NCc3ccc(Cl)cc3Cl)c3ccc(Cl)c(Cl)c3)CC2)O1 (stereo not drawn) [Example 62, N-(2,4-dichlorobenzyl)-2-(3,4-dichlorophenyl)-4-(6-fluoro-2-oxo-1,2-dihydro-1′H-spiro[3,1-benzoxazine-4,4′-piperidin]-1′-yl)butanamide] | 8.00 |
| CN(CCc1ccccc1)C(=O)C(CCN1CCC2(CC1)OC(=O)Nc1ccc(F)cc12)c1ccc(Cl)c(Cl)c1 (stereo not drawn) [Example 65, 2-(3,4-dichlorophenyl)-4-(6-fluoro-2-oxo-1,2-dihydro-1′H-spiro[3,1-benzoxazine-4,4′-piperidin]-1′-yl)-N-methyl-N-(2-phenylethyl)butanamide] | 7.15 |
| CN(Cc1ccc(N2CCOCC2)cc1)C(=O)C(CCN1CCC2(CC1)OC(=O)Nc1ccc(F)cc12)c1ccc(Cl)c(Cl)c1 (stereo not drawn) [Example 70, 2-(3,4-dichlorophenyl)-4-(6-fluoro-2-oxo-1,2-dihydro-1′H-spiro[3,1-benzoxazine-4,4′-piperidin]-1′-yl)-N-methyl-N-(4-morpholin-4-ylbenzyl)butanamide] | 7.01 |
| CN(Cc1ccc(-c2ccncc2)cc1)C(=O)C(CCN1CCC2(CC1)OC(=O)Nc1ccc(F)cc12)c1ccc(Cl)c(Cl)c1 (stereo not drawn) [Example 72, 2-(3,4-dichlorophenyl)-4-(6-fluoro-2-oxo-1,2-dihydro-1′H-spiro[3,1-benzoxazine-4,4′-piperidin]-1′-yl)-N-methyl-N-(4-pyridin-4-ylbenzyl)butanamide] | 7.73 |

same assay, conditions: hNK3 Ki, [3H]SR142801 displacement, membranes of HEK293 cells transiently expressing recombinant human NK3 receptor

| Structure (SMILES) | pKi |
| --- | --- |
| CN(Cc1ccccc1Cl)C(=O)C(CCN1CCC2(CC1)OC(=O)N(C)c1ccc(F)cc12)c1ccc(Cl)c(Cl)c1 (stereo not drawn) [Example 44, N-(2-chlorobenzyl)-2-(3,4-dichlorophenyl)-4-(6-fluoro-1-methyl-2-oxo-1,2-dihydro-1′H-spiro[3,1-benzoxazine-4,4′-piperidin]-1′-yl)-N-methylbutanamide] | 8.80 |
| O=C1Nc2ccc(F)cc2C2(CCN(CCC(C(=O)NCc3ccc(Cl)cc3Cl)c3ccc(F)cc3)CC2)O1 (stereo not drawn) [Example 47, N-(2,4-dichlorobenzyl)-4-(6-fluoro-2-oxo-1,2-dihydro-1′H-spiro[3,1-benzoxazine-4,4′-piperidin]-1′-yl)-2-(4-fluorophenyl)butanamide] | 7.08 |
| O=C1Nc2ccc(F)cc2C2(CCN(CCC(C(=O)NCc3ccccc3OC(F)(F)F)c3ccc(F)cc3)CC2)O1 (stereo not drawn) [Example 49, 4-(6-fluoro-2-oxo-1,2-dihydro-1′H-spiro[3,1-benzoxazine-4,4′-piperidin]-1′-yl)-2-(4-fluorophenyl)-N-[2-(trifluoromethoxy)benzyl]butanamide] | 7.04 |
| CN(Cc1ccc(C(F)(F)F)cc1)C(=O)C(CCN1CCC2(CC1)OC(=O)Nc1ccc(F)cc12)c1ccc(F)cc1 (stereo not drawn) [Example 51, 4-(6-fluoro-2-oxo-1,2-dihydro-1′H-spiro[3,1-benzoxazine-4,4′-piperidin]-1′-yl)-2-(4-fluorophenyl)-N-methyl-N-[4-(trifluoromethyl)benzyl]butanamide] | 7.49 |
| Cc1ccc(CN(C)C(=O)C(CCN2CCC3(CC2)OC(=O)Nc2ccc(F)cc23)c2ccc(F)cc2)cc1 (stereo not drawn) [Example 56, 4-(6-fluoro-2-oxo-1,2-dihydro-1′H-spiro[3,1-benzoxazine-4,4′-piperidin]-1′-yl)-2-(4-fluorophenyl)-N-methyl-N-(4-methylbenzyl)butanamide] | 7.18 |
| CN(Cc1cccc(C(F)(F)F)c1)C(=O)C(CCN1CCC2(CC1)OC(=O)Nc1ccc(F)cc12)c1ccc(F)cc1 (stereo not drawn) [Example 58, 4-(6-fluoro-2-oxo-1,2-dihydro-1′H-spiro[3,1-benzoxazine-4,4′-piperidin]-1′-yl)-2-(4-fluorophenyl)-N-methyl-N-[3-(trifluoromethyl)benzyl]butanamide] | 7.02 |
| CN(Cc1ccc(F)cc1)C(=O)C(CCN1CCC2(CC1)OC(=O)Nc1ccc(F)cc12)c1ccc(F)cc1 (stereo not drawn) [Example 59, N-(4-fluorobenzyl)-4-(6-fluoro-2-oxo-1,2-dihydro-1′H-spiro[3,1-benzoxazine-4,4′-piperidin]-1′-yl)-2-(4-fluorophenyl)-N-methylbutanamide] | 7.31 |
| CN(Cc1ccccc1)C(=O)C(CCN1CCC2(CC1)OC(=O)Nc1ccc(F)cc12)c1ccc(Cl)c(Cl)c1 (stereo not drawn) [Example 64, N-benzyl-2-(3,4-dichlorophenyl)-4-(6-fluoro-2-oxo-1,2-dihydro-1′H-spiro[3,1-benzoxazine-4,4′-piperidin]-1′-yl)-N-methylbutanamide] | 7.90 |
| O=C1Nc2ccc(F)cc2C2(CCN(CCC(C(=O)NCc3ccccc3OC(F)(F)F)c3ccc(Cl)c(Cl)c3)CC2)O1 (stereo not drawn) [Example 66, 2-(3,4-dichlorophenyl)-4-(6-fluoro-2-oxo-1,2-dihydro-1′H-spiro[3,1-benzoxazine-4,4′-piperidin]-1′-yl)-N-[2-(trifluoromethoxy)benzyl]butanamide] | 7.54 |
| O=C1Nc2ccc(F)cc2C2(CCN(CCC(C(=O)NCc3cccc(OC(F)F)c3)c3ccc(Cl)c(Cl)c3)CC2)O1 (stereo not drawn) [Example 67, 2-(3,4-dichlorophenyl)-N-[3-(difluoromethoxy)benzyl]4-(6-fluoro-2-oxo-1,2-dihydro-1′H-spiro[3,1-benzoxazine-4,4′-piperidin]-1′-yl)butanamide] | 7.72 |
| CN(Cc1ccc(C(F)(F)F)cc1)C(=O)C(CCN1CCC2(CC1)OC(=O)Nc1ccc(F)cc12)c1ccc(Cl)c(Cl)c1 (stereo not drawn) [Example 68, 2-(3,4-dichlorophenyl)-4-(6-fluoro-2-oxo-1,2-dihydro-1′H-spiro[3,1-benzoxazine-4,4′-piperidin]-1′-yl)-N-methyl-N-[4-(trifluoromethyl)benzyl]butanamide] | 8.85 |
| COc1ccc(CN(C)C(=O)C(CCN2CCC3(CC2)OC(=O)Nc2ccc(F)cc23)c2ccc(Cl)c(Cl)c2)cc1F (stereo not drawn) [Example 74, 2-(3,4-dichlorophenyl)-N-(3-fluoro-4-methoxybenzyl)-4-(6-fluoro-2-oxo-1,2-dihydro-1′H-spiro[3,1-benzoxazine-4,4′-piperidin]-1′-yl)-N-methylbutanamide] | 8.26 |
| COc1cc(CN(C)C(=O)C(CCN2CCC3(CC2)OC(=O)Nc2ccc(F)cc23)c2ccc(Cl)c(Cl)c2)ccc1OC(F)F (stereo not drawn) [Example 75, 2-(3,4-dichlorophenyl)-N-[4(difluoromethoxy)-3-methoxybenzyl]4-(6-fluoro-2-oxo-1,2-dihydro-1′H-spiro[3,1-benzoxazine-4,4′-piperidin]-1′-yl)-N-methylbutanamide] | 8.11 |
| CN(Cc1cccc(F)c1)C(=O)C(CCN1CCC2(CC1)OC(=O)Nc1ccc(F)cc12)c1ccc(Cl)c(Cl)c1 (stereo not drawn) [Example 76, 2-(3,4-dichlorophenyl)-N-(3-fluorobenzyl)-4-(6-fluoro-2-oxo-1,2-dihydro-1′H-spiro[3,1-benzoxazine-4,4′-piperidin]-1′-yl)-N-methylbutanamide] | 8.34 |
| Cc1ccc(CN(C)C(=O)C(CCN2CCC3(CC2)OC(=O)Nc2ccc(F)cc23)c2ccc(Cl)c(Cl)c2)cc1 (stereo not drawn) [Example 77, 2-(3,4-dichlorophenyl)-4-(6-fluoro-2-oxo-1,2-dihydro-1′H-spiro[3,1-benzoxazine-4,4′-piperidin]-1′-yl)-N-methyl-N-(4-methylbenzyl)butanamide] | 8.34 |
